For six molecules, inhibition and IC50 results are on record in ChEMBL document CHEMBL5550115, “Histone deacetylase (HDAC) inhibitor specificity determinants are preserved in a class of dual HDAC/non-covalent proteasome inhibitors” (Bioorg Med Chem, 2024).

SMILES strings stand for the structures. pIC50: −log10 of the molar value.

By inhibition is commonly meant the relative decrease from the control value, in per cent. The pIC50 is the negative decadic logarithm of the IC50, by convention in mol/L.

Assay [1] has as its target Histone deacetylase 1 (Homo sapiens) (UniProt Q13547). Nature of the assay: Inhibition of HDAC1 (unknown origin) at 1 uM incubated for 1 hr by fluorescence based microplate reader analysis relative to control.
In another assay the test system is RPMI-8226. Nature of the assay: Antiproliferative activity against human RPMI-8226 cells assessed as inhibition of cell growth measured after 72 hrs by MTS method. The assay is classed as functional, cell-based. The conditions noted are these: RPMI-8226, 72 h. For orientation: Tetrazolium assays rely on reduction of a dye to a coloured formazan, in cell work by metabolically active cells.

The target of assay [2] is T1, Protein deacetylase HDAC6 (Homo sapiens) (UniProt Q9UBN7).
T1 sequence (whole entry): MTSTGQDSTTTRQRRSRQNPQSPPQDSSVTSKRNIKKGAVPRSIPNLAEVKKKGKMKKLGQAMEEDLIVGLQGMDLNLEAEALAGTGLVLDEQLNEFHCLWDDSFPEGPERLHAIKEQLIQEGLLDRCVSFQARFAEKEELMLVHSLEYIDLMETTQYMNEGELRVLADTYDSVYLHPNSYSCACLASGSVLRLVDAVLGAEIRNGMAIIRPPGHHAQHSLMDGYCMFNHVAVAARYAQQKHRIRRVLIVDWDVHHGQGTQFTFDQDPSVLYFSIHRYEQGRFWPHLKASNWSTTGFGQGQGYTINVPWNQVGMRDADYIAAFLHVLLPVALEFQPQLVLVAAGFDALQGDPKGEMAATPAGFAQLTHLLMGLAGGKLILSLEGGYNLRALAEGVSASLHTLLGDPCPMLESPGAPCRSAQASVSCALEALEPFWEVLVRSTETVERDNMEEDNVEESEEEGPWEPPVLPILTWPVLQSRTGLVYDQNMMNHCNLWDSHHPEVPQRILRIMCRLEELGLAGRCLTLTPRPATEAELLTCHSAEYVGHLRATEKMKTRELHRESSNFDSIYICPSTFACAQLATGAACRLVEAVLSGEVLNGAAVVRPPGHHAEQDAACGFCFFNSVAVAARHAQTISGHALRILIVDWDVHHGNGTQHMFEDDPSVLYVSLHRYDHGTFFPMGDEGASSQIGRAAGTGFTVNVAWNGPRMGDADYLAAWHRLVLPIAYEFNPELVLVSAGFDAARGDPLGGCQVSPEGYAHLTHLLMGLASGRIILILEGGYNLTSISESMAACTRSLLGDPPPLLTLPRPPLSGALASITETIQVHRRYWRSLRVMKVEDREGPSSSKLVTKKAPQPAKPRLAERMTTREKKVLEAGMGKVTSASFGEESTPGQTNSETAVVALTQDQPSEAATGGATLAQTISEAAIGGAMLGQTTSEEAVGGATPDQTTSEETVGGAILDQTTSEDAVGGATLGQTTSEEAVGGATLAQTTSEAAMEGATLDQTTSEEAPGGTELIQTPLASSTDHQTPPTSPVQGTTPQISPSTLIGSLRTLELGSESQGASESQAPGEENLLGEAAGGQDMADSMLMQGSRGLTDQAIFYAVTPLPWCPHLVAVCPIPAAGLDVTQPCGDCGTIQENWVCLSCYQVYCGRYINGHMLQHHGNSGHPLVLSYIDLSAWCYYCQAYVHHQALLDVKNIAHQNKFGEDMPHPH
The assay is described as follows: Inhibition of HDAC6 (unknown origin) at 1 uM incubated for 1 hr by fluorescence based microplate reader analysis relative to control.

In the next assay the test system is A-375. The assay is described as follows: Antiproliferative activity against human A-375 cells assessed as inhibition of cell growth measured after 48 hrs by cell titer-blue cell viability assay. Type of assay: functional, cell-based. The conditions noted are these: A-375, 48 h. In general terms: Alamar Blue is a resazurin reagent that responds to reducing activity.

The target in another assay is 20S proteasome. The assay is described as follows: Inhibition of human 20S proteasome chymotrypsin-like activity using Suc-LLVY-Glo as a […] substrate measured after 10 mins by luminescence based analysis. The assay is classed as protein-complex assay.
In assay [3] the target is T2, Proteasome Macropain subunit MB1 (Homo sapiens, UniProt P28074).
T2 sequence (P28074 whole entry): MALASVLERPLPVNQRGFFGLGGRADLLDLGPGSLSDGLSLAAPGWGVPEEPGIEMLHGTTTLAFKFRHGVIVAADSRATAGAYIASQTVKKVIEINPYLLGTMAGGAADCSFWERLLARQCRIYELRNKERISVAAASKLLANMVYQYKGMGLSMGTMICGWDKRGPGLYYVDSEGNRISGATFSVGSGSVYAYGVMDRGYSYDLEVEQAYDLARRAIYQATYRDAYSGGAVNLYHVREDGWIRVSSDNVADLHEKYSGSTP
Nature of the assay: Inhibition of human 20S proteosome beta5c subunit using Ac-WLA-AMC as substrate by microplate reader analysis.

Chain of Histone deacetylase 1 (Homo sapiens) (Q13547 whole entry): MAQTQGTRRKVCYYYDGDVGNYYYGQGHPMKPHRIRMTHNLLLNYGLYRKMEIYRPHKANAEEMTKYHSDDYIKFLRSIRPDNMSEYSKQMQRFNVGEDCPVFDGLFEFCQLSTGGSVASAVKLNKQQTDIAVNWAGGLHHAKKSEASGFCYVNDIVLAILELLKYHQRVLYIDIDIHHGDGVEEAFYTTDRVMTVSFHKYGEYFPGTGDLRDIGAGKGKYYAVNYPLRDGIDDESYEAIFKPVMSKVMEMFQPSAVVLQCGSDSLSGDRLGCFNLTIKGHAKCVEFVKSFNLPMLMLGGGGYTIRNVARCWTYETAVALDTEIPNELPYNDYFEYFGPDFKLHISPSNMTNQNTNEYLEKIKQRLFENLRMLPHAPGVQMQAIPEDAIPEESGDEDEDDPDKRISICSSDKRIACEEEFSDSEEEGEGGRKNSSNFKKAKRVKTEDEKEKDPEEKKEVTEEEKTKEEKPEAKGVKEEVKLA

In the case of `C[C@H](NC(=O)[C@H](CC(=O)NCC(C)(C)C)NC(=O)c1ccc(C(=O)Nc2ccccc2N)cc1)C(=O)NCc1ccc(F)cc1F`, the values for the inhibition in assay [1] and in assay [2] were 65% and 13%, respectively. Besides, the pIC50 in the assay with RPMI-8226 and with A-375 was less than 4.30 throughout.

Regarding `C[C@H](NC(=O)[C@H](CC(=O)NCC(C)(C)C)NC(=O)CCC(=O)Nc1ccc(C(=O)NO)cc1)C(=O)NCc1ccc(F)cc1F`, the negative-log IC50 (pIC50) is less than 4.30 in the assay with RPMI-8226, less than 4.52 on 20S proteasome and less than 4.30 with A-375.

On to `C[C@H](NC(=O)[C@H](CC(=O)NCC(C)(C)C)NC(=O)c1ccc(C(=O)NO)cc1)C(=O)NCc1ccc(F)cc1F`, for which the pIC50 is less than 4.30 with RPMI-8226 and less than 4.52 against 20S proteasome.

As to `C[C@H](NC(=O)[C@H](CC(=O)NCC(C)(C)C)NC(=O)c1ccc(/C=C/C(=O)NO)cc1)C(=O)NCc1ccc(F)cc1F`, the figures for the negative-log IC50 (pIC50) in the assay on RPMI-8226, at 20S proteasome and in the assay on A-375 were 5.15, 6.70 and 5.74, respectively.

Regarding `C[C@H](NC(=O)[C@H](CC(=O)NCC(C)(C)C)NC(=O)c1c[nH]c2ccccc12)C(=O)NCc1ccc(F)cc1F`, the negative-log IC50 (pIC50) in assay [3] was 8.62; in the assay on RPMI-8226, 4.94; against 20S proteasome it was 6.14; in the assay on A-375, 5.05.

As for `C[C@H](NC(=O)[C@H](CC(=O)NCC(C)(C)C)NC(=O)CCCCCCC(=O)NO)C(=O)NCc1ccc(F)cc1F`, the pIC50 in the assay with RPMI-8226 is less than 4.30; against 20S proteasome, less than 4.52.
